One molecule from ChEMBL document CHEMBL1145700, “Pyraxinine, a Novel Nitrogenous Compound from the Marine Sponge Cymbastela cantharella” (J Nat Prod, 1997) can be followed below.

The nature of the assay: Inhibition of LPS-induced macrophagic NOS at 100 uM.

Broadly, the inhibition is how much of the control response was suppressed. A higher inhibition goes with a strong effect. Molecule `N=C(N)Nc1cccnc1` gave an inhibition of 50%.
